Results taken from patent USRE35904E, “Method and probes for detecting nucleoside transporter and method for producing the probes” (Governors of the University of Alberta, priority 1995, dated 1998).

Experiments:
[1] = target: T1, es nucleoside transporter (Mus musculus, UniProt Q9JIM1); test: [3H]NBMPR equilibrium binding to L1210/B23.1 cells and its inhibition by SAENTA-fluorescein probes; details: 22°, replots of Kd(app)/Bmax versus [probe], read-out: Ki (mean ± S.D.)
T1 construct: endogenous in cells; host or cells: L1210/B23.1 mouse leukemia cells
T1 sequence (Q9JIM1 1-460): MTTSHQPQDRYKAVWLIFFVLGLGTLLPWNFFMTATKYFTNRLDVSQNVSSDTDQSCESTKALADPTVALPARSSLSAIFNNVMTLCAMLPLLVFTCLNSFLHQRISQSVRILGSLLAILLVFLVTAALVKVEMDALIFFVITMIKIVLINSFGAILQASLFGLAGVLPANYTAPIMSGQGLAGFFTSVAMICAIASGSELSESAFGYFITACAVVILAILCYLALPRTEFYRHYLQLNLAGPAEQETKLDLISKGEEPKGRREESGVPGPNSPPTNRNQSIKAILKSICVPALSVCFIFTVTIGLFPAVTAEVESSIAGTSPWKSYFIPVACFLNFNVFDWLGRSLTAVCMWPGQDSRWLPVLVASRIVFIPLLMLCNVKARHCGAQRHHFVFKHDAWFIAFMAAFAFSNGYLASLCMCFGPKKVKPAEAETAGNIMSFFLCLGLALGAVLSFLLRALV

[2] = target: T1, es nucleoside transporter; test: Flow cytometric staining of L1210/B23.1 cells (es nucleoside transporter-expressing) by SAENTA-fluorescein probe; format: cell-based
Experimental: (§1) Flow cytometric measurements of binding of .[.SAENTA-x2 -fluorescein.]. .Iadd.SAENTA-X2-fluorescein .Iaddend.prepared as in Example 3 was carried out as in Example 4 using two clonal lines of cultured mouse leukemia L 1210 cells, L 1210/B23.1 and L 1210/MA-27.1. L 1210/B23.1 expresses NBMPR binding sites and nuclesoside transporter activity whereas L 1210/MA-27.1 cells lack both of these features.
(§2) Staining conditions were chosen to minimise non-specific fluorescence signals from L 1210/MA-27.1 cells treated with the nucleoside.
(§3) Cells were exposed for 10 min at 4° C. to phosphate-buffered (pH 8.0) salts medium containing 40 nM .[.5(SAENTA-xx2)fluorescein.]. .Iadd.5-(SAENTA-X2)-fluorescein .Iaddend.prior to flow cytometric analysis in a BD FACSan instrument; 10^5 cells were analysed. Cells in replicate assay mixtures were also exposed for 5 min at 22° C. to medium containing 10 μM NBMPR and then for 10 min at 4° C. to medium containing both NBMPR and .[.5-SAENTA-x2)-fluorescein.]. .Iadd.5-(SAENTA-X2)-fluorescein.Iaddend..
(a) Clonal lines of mouse leukemia cells were exposed for 10 min at 4° C. to phosphate buffered (pH 8.0) saline containing […] .[.5-(SAENTA-x2)-fluorescein.]. .Iadd.5-(SAENTA-X2)-fluorescein .Iaddend.(prepared as in Example 3) prior to flow cytometric analysis in a BD FACScan instrument; 10^4 cells were analysed. Cells in replicate mixtures were also exposed for 5 min at 22° C. to medium containing 10 μM NBMPR and then for 10 min at 4° C. to medium containing both NBMPR and .[.5-(SAENTA-x2)-fluorescein.]. .Iadd.5-(SAENTA-X2)-fluorescein.Iaddend.. L 1210/B23.1 cells express the es nucleoside transport system whereas L 1210/MA-27.1 cells lack that activity.

[3] = tested on: L 1210/MA-27.1 cells; test: Flow cytometric staining of L1210/MA-27.1 cells (lacking es nucleoside transporter); format: cell-based, mouse; details: with or without NBMPR pretreatment, FIG. 9
Experimental: as §1, §2, §3
(a) Clonal lines of mouse leukemia cells were exposed for 10 min at 4° C. to phosphate buffered (pH 8.0) saline containing […] .[.5-(SAENTA-x2)-fluorescein.]. .Iadd.5-(SAENTA-X2)-fluorescein .Iaddend.(prepared as in Example 3) prior to flow cytometric analysis in a BD FACScan instrument; 10^4 cells were analysed. […]

[4] = target: T1, es nucleoside transporter; test: Concentration-dependence of fluorescent staining of L1210/B23.1 cells by flow cytometry; format: cell-based; details: 40 min, 4° C., pH 8.0, autofluorescence 298
Experimental: (b) Concentration-dependence of fluorescent staining of L 1210/23.1 cells by .[.5-(SAENTA-x2)-fluorescein.]. .Iadd.5-(SAENTA-X2)-fluorescein .Iaddend.was measured and the results are set out in Table 4.
Cells in PBS at pH 8.0 were incubated with the listed concentrations of the SAENTA-fluor probe at 4° C. for 40 min prior to flow cytometric analysis.

[5] = tested on: es nucleoside transporter; details: Gati et al. 1987; cited from earlier work

Ki [1] | staining of L1210/B23.1 cells ([2]; 40 mM (so in the source), 10 min, 4° C., pH 8.0, FIG. 9) | Fluorescence intensity ([4]; 5 nM) | Fluorescence intensity ([4]; 10 nM) | Fluorescence intensity ([4]; 20 nM) | Fluorescence intensity ([4]; 40 nM) | Fluorescence intensity ([4]; 60 nM) | Fluorescence intensity ([4]; 80 nM) | Fluorescence intensity ([4]; 160 nM) | Fluorescence intensity ([4]; 320 nM) | Fluorescence intensity ([4]; 640 nM) | Fluorescence intensity ([4]; 1280 nM) | Molecule | specificity of staining of the cell lines ([2]; L1210/B23.1 versus L1210/MA27.1, FIG. 9) | fluorescence of L1210/MA27.1 cells after staining compared with autofluorescence [3] | non-specific adsorption [5]
17 ± 8 nM | stained 1210/B23.1 cells | 301 mean channel no. | 344 mean channel no. | 372 mean channel no. | 407 mean channel no. | 427 mean channel no. | 429 mean channel no. | 497 mean channel no. | 601 mean channel no. | 691 mean channel no. | 761 mean channel no. | O=C1OC2(c3ccc(O)cc3Oc3cc(O)ccc32)c2ccc(NC(=S)NCCSC[C@H]3O[C@@H](n4cnc5c(NCc6ccc([N+](=O)[O-])cc6)ncnc54)[C@H](O)[C@@H]3O)cc21 [5-(SAENTA-X2)-fluorescein, 5'-S-[2-(Fluorescein-5-thioureidyl)ethyl]-N^6-(4-nitrobenzyl)-5'-thioadenosine] | specific for the es nucleoside transporter system | very similar | –
– | – | – | – | – | – | – | – | – | – | – | – | [^125 I]Iodohydroxynitrobenzylthioinosine [[125I]Iodohydroxynitrobenzylthioinosine] | – | – | high non-specific adsorption
